Target: SARS-CoV-2 3CL^pro (Severe acute respiratory syndrome coronavirus 2, UniProt P0DTD1)
Test: biochemical
Conditions: for Ratio (IC50 0.5 min / IC50 60 min): IC50 shift between 0.5 min and 60 min preincubation

Molecule	IC50 (IC50 0.5 (min)) [µM]	IC50 (IC50 60 (min)) [µM]	IC50 (IC50 (three different doses), assayed by using three different doses, Fig. 4) [µM]	Ratio (IC50 0.5 min / IC50 60 min)
O=C1c2c(O)cc(O)cc2OC(c2ccc(O)c(O)c2)C1O (centres unmarked) [Taxifolin]	> 200	72.7	10 to 100	>2.75
Myricitrin				8.32

— paper PMC8322037 (International Journal of Biological Macromolecules, 2021)
